Calls of active or inactive are those of the source. No rule for the calls is given here.

The assay deals with Alkaline phosphatase, placental type (Homo sapiens) (UniProt P05187). In words: inhibition of human placental alkaline phosphatase – biochemical, luminescence, HTS (AID 690). To be noted: purified PLAP, luminescent substrate.
Alkaline phosphatase, placental type (Homo sapiens), sequence (P05187 whole entry, looked up): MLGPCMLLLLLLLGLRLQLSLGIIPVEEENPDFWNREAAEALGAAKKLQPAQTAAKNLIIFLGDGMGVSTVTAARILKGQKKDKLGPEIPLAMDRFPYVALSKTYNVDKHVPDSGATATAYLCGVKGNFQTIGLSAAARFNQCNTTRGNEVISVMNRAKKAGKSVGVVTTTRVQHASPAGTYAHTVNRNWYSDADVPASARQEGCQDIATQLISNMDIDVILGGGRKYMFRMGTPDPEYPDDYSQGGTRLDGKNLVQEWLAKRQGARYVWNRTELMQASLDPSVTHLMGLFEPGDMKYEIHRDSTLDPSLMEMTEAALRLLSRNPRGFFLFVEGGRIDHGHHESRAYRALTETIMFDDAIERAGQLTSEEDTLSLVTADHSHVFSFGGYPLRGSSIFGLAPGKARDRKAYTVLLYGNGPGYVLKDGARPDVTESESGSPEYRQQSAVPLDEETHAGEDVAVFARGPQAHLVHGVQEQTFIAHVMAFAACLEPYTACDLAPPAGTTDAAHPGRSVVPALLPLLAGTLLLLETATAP

A word on the IC50: it is the concentration needed to halve the response being measured. In the case of `N#C/C(=C\c1ccc(O)c(O)c1)S(=O)(=O)c1ccccc1`, the IC50 is 4.1 µM.
Turning to `COC(=O)C(N)Cc1ccc(O)c(O)c1` (stereo not given), the IC50 is 10.2 µM.
Consider `Cc1cc2nc(C3CCN(Cc4nnnn4Cc4cccs4)CC3)[nH]c2cc1C`, for which the IC50 was 7.67 µM.
The value for `C=CCn1c(SCC(=O)c2ccc(O)c(O)c2)nnc1-c1ccccc1OC` was 1.55 µM; that for `COc1cccc(-c2nnc3n2N=C(c2cccc(Br)c2)CS3)c1` was 76.1 µM.
Next, `CCCc1[nH]nc2c1C(c1ccc(O)c(OC)c1)C(C#N)=C(N)O2` (stereo not given): 11.8 µM; `N#Cc1c(SCC(=O)OCc2ccccc2)nsc1SCC(=O)OCc1ccccc1`: 62.9 µM.
Next, `CCn1c(CSc2nc3ccccc3s2)nnc1SCC(=O)c1ccc(O)c(O)c1`: 1.52 µM; `COCc1[nH]nc2c1C(c1cc(OC)c(O)c(OC)c1)C(C#N)=C(N)O2` (stereo not given): 23 µM.
With `CC1=NN(Cc2ccccc2)C(=O)/C1=C\c1ccc(N(C)C)cc1`, the IC50 is 18.3 µM.
Turning to `O=P(O)(O)c1ccccc1OCc1ccccc1`, the IC50 is 8.43 µM.
With `CN1c2ccccc2C(C)(C)[C@]12C=Cc1cc(O)ccc1O2`, the IC50 was 43.9 µM.
Regarding `C/C(=N\Nc1ccc([N+](=O)[O-])cc1)c1cccc(N)c1`, the IC50 was 51.9 µM.
As for `Cc1[nH]c2ccccc2c1/C=C/c1cc[n+](C)cc1`, the IC50 is 29.1 µM.
Regarding `COc1cc(/C=C2/CCC/C(=C\c3cc(O)c(OC)c(Cl)c3)C2=O)cc(Cl)c1O`, the IC50 is 28.2 µM.
For `CCCCOc1ccc(CSC(=N)N)cc1[N+](=O)[O-]`, the IC50 was 78.3 µM.
Next, `Clc1ccc(CSCCc2ccncc2)cc1`: 5.76 µM; `COc1cc(/C=C(/C(=O)c2cccs2)c2nc3ccccc3[nH]2)cc(OC)c1O`: 20.4 µM.
As to `O=C1C2C3C=CC(C3)C2C(=O)N1c1n[nH]c(-c2cccnc2)n1` (stereo not given), the IC50 was 29.8 µM.
For the molecule `O=C(NCc1cccnc1)NC1(C(F)(F)F)Oc2ccc(Cl)cc2O1` (stereo not given), the IC50 is 12.4 µM.
Turning to `CC(C)N=c1scc(-c2ccco2)n1/N=C/c1ccc(O)c(O)c1`, the IC50 was 4.97 µM.
With `Clc1ccc(CSc2nnnn2-c2ccc3c(c2)OCO3)c(Cl)c1`, the IC50 is 73.3 µM.
In the case of `O/N=C/c1cc(Cl)ccc1OCc1cccc2ccccc12`, the IC50 is 42.3 µM.
For `CC(C)C1N=C2c3ccccc3N=C(SCC(=O)c3ccc(O)c(O)c3)N2C1=O` (stereo not given), the IC50 is 3.11 µM.
Take `O=C(C[n+]1ccc(C(=O)N/N=C/c2ccc(Br)cc2)cc1)c1ccccc1`: the IC50 was 34.3 µM.
Take `CCN1/C(=C/c2ccc3ccccc3[n+]2CC)C=Cc2ccccc21`: the IC50 is 10.6 µM.
On to `Cc1cc(C)nc(NN2C(=O)/C(=C/c3ccc(O)cc3)SC2=S)n1`, for which the IC50 was 18.8 µM.
`C=CCN1C(=O)NC2(O)C(=O)c3ccccc3C12O` (stereo not given): the IC50 is 15.8 µM.
The value for `CN1/C(=C\C=C2\N=C(c3ccc(F)cc3)OC2=O)C(C)(C)c2ccccc21` was 35.7 µM; that for `CC1(C)Cc2c(sc3nc4n(c(=N)c23)CCCCC4)CO1` was 1.88 µM.
`O=C(Nc1cc(N2CCOCC2)ncn1)NC1(C(F)(F)F)Oc2ccc(Cl)cc2O1` (stereo not given): the IC50 was 12.7 µM.
Next, `COc1cc(/C=C2\N=C3CCCCCN3C2=O)ccc1O`: 25.6 µM.
For the molecule `Oc1ccc(C2=Nn3c(nnc3-c3ccco3)SC2)cc1O`, the IC50 was 21.5 µM.
Consider `COc1cccc(OCCNc2cc(Cl)ccc2[N+](=O)[O-])c1`, for which the IC50 was 60.7 µM.
Consider `CCCCOC(=O)C(C)Nc1n[nH]c(=S)[nH]c1=O` (stereo not given), for which the IC50 was 43.3 µM.
`Clc1ccc(/C=C/c2nc3ccccc3[nH]2)c(Cl)c1`: the IC50 was 6.37 µM.
Regarding `CC(=O)Oc1cc2oc(=O)cc(C)c2cc1OC(C)=O`, the IC50 is 6.24 µM.
For `CNc1nnc(-c2cc3ccccc3oc2=O)s1`, the IC50 is 2.85 µM.
For the molecule `O=C(CCCn1c(SCC(=O)c2ccc(O)c(O)c2)nc2ccccc2c1=O)NCC1CCCO1` (stereo not given), the IC50 is 3.45 µM.
Consider `c1ccc(CSCCc2ccncc2)cc1`, for which the IC50 is 2.01 µM.
The value for `CC1CCCC/C1=N/Nc1ccc([N+](=O)[O-])cc1[N+](=O)[O-]` (stereo not given) was 7.24 µM; that for `COC(=O)c1ccc2c(c1)C(C)(C)C(/C=C/c1ccc(O)cc1)=[N+]2C` was 10.8 µM.
The value for `CCn1c(SCC(=O)c2ccc(O)c(O)c2)nnc1-c1ccccc1` was 4.25 µM; that for `CCC1CCc2c(c3ccccc3[nH]c2=O)O1` (stereo not given) was 14.1 µM; that for `CN(C)c1ccc(/C=C/C=C2/SC(=S)N(c3ccccc3)C2=O)cc1` was 9.81 µM.
Turning to `CN(C)CCNc1ncnc2ccccc12`, the IC50 is 71.3 µM.
Next, `CCOc1ccccc1OCc1nn2c(-c3ccc(C)cc3)nnc2s1`: 55.8 µM.
Regarding `Cc1nn(-c2ccccc2)c(C)c1/C=N/NC(=O)c1cc(-c2ccccc2)n[nH]1`, the IC50 was 7.34 µM.
For the molecule `COC(=O)c1cn[nH]c1NC(=S)Nc1ccccc1C`, the IC50 was 19.3 µM.
Consider `CCOC(=O)c1c(-n2c(C)cc(C=C3C(=O)NC(=S)NC3=O)c2C)sc2c1CCCC2`, for which the IC50 is 63.9 µM.
For `CN(C)c1ccc(/C=C/c2cc[n+](C)cc2)cc1`, the IC50 is 17.3 µM.
As for `COCCNC(=O)NC1(C(F)(F)F)Oc2ccc(Cl)cc2O1` (stereo not given), the IC50 was 12.3 µM.
Take `CCN1/C(=C\C=C\C2=[N+](CC)c3ccccc3C2(C)C)C(C)(C)c2ccccc21`: the IC50 is 22 µM.
`COC(=O)c1ccc2c(c1)C(C)(C)C(/C=C/c1ccccc1O)=[N+]2C`: the IC50 is 15 µM.
In the case of `COc1ccc(-c2nnc(-c3ccc(Br)o3)o2)cc1OC`, the IC50 is 10.3 µM.
As to `Oc1ccc(CC2CC3CCN2CC3)cc1O` (stereo not given), the IC50 is 36 µM.
Regarding `O=C(CSc1n[nH]c(-c2ccccc2)n1)c1ccc(O)c(O)c1`, the IC50 was 11.1 µM.
The value for `CSc1cccc(NC(=O)/C=C/c2ccccc2)c1` was 75.8 µM; that for `O=C(CSc1nc2ccccc2c(=O)[nH]1)c1ccc(O)c(O)c1` was 9.59 µM; that for `O=c1oc2cc(Cl)ccc2n1CSc1nc2ccccc2s1` was 85.6 µM.
Take `c1ccc(Nc2cccc(Nc3ccccc3)n2)cc1`: the IC50 is 65.4 µM.
For the molecule `CCn1c(SCC(=O)c2ccc(O)c(O)c2)nnc1-c1ccccc1OC`, the IC50 is 4.36 µM.
With `CN1C(=O)/C(=C2/C=Cc3ccccc3N2CCCS(=O)(=O)O)SC1=S`, the IC50 was 15.2 µM.
In the case of `CN(C)c1ccc(/C=C/C(=O)c2cccc(Br)c2)cc1`, the IC50 was 35.5 µM.
For the molecule `COC(=O)C1=C(O)/C(=C\c2ccc(O)c(OC)c2)N=C1C`, the IC50 was 28.8 µM.
As to `Cc1ccc(C)c(NC(=S)NC(NC(=O)Cc2cccc3ccccc23)C(Cl)(Cl)Cl)c1` (stereo not given), the IC50 is 27.5 µM.
The value for `O=C(NC1(C(F)(F)F)Oc2ccc(Cl)cc2O1)N1CCC2(CC1)OCCO2` (stereo not given) was 4.87 µM; that for `CN1C(=O)/C(=C\c2ccc(N3CCCCC3)o2)C(=O)NC1=S` was 10.1 µM; that for `O=C1C2C3C=CC(C3)C2C(=O)N1c1n[nH]c(-c2ccccc2)n1` (stereo not given) was 7.63 µM.
Consider `COc1ccc(-n2nnnc2SCC(=O)c2ccc(O)c(O)c2)cc1`, for which the IC50 is 1.13 µM.
Consider `Cc1cc([N+](=O)[O-])ccc1NCc1ccc2ccccc2c1`, for which the IC50 was 75 µM.
Next, `O=C1NC(=S)N/C1=C/c1cc([N+](=O)[O-])ccc1O`: “inactive”; `O=c1sc2ccccc2n1COc1ccc(Cl)cc1`: 99.3 µM.
Regarding `O=C1Nc2ccc(Br)cc2/C1=N/N=C/C1=C(N2CCOCC2)C(=C\c2ccccc2)/CC1`, the IC50 was 45.6 µM.
On to `O=C1C2CC=CCC2C(=O)N1c1n[nH]c(-c2ccccc2)n1` (stereo not given), for which the IC50 is 8.77 µM.
On to `CCOC(=O)SC1=N/C(=C\c2ccc(N(C)C)cc2)C(=O)S1`, for which the IC50 was 47.4 µM.
Turning to `c1ccc(-n2ncc3c2ncn2cnnc32)cc1`, the IC50 is 2.11 µM.
`CCN1/C(=C/c2ccc3cccc(C)c3[n+]2CC)Sc2ccccc21`: the IC50 was 11.9 µM.
On to `CCOc1cc(/C=C(/C#N)C(=O)Nc2ccc(O)cc2)cc(Br)c1O`, for which the IC50 was 48.5 µM.
For `CCc1ccc(NSc2ccccc2[N+](=O)[O-])cc1`, the IC50 is 29.2 µM.

(Values after PubChem BioAssay AID690 (Sanford-Burnham Center for Chemical Genomics, 2007).)
